biological target: Alkaline phosphatase, placental type (Homo sapiens, UniProt P05187); test: activation of placental alkaline phosphatase – biochemical, uHTS hits, mouse IAP activator project, dose response (AID 488878)
Sequence (P05187 whole entry, looked up): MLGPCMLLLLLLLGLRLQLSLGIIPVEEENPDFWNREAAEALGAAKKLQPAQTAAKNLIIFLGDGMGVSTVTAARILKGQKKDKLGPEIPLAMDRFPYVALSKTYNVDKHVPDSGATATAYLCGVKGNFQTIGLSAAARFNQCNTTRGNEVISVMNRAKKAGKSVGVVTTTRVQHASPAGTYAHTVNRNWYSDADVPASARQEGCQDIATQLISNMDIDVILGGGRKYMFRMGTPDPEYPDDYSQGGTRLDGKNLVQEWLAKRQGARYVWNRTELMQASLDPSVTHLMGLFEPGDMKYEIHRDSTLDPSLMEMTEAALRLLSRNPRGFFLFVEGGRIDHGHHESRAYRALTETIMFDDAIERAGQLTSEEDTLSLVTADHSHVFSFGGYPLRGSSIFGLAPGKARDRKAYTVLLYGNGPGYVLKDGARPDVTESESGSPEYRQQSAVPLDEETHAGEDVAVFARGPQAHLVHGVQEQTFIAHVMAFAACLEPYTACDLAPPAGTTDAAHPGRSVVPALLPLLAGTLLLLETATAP

First: CN(CCO)c1ccc(CN=Nc2ccc([N+](=O)[O-])cc2S(=O)(=O)Nc2ccccc2C(=O)O)cc1
Second: Cc1cc(=O)[nH]c(N=NCc2ccc(O)c(O)c2)n1 [MLS001194906]
The EC50 of the first is 2.5-fold lower: 26 µM for the first, 65.7 µM for the second.

Compared with O=C(NN=CC1=CC(=O)C(=O)CC1)NN=CC1=CC(=O)C(=O)CC1 [1,3-bis[[(Z)-(3-hydroxy-4-oxocyclohexa-2,5-dien-1-ylidene)methyl]amino]urea], Nc1c(/C=C2/C=CC(=O)C(O)=C2)c(=O)nc2sc(CC(=O)N3CCCC3)nn12 [MLS001139292] is 3-fold lower in EC50: 29.6 µM for the first, 9.83 µM for the second. The second is the more potent here.

O=C1CC(=O)c2c(O)cc(O)c(O)c2C1=O [4,5,7,8-tetrahydroxy-1,2-naphthoquinone] and O=C1C=CC(/C=C/c2nc(O)c([N+](=O)[O-])c(=O)[nH]2)C=C1O (stereo not drawn) [SMR000524347] cannot be ordered by EC50: > 100 µM for the first, > 100 µM for the second.

Compared with O=c1ccc2cc3c([nH]c4ccc(Br)cc43)oc-2c1O [9-bromo-4-hydroxy-6H-[1]benzopyrano[2,3-b]indol-3-one], CS(=O)(=O)c1ccc2c(c1)sc1nc(=O)c(/C=C3/C=CC(=O)C(O)=C3)c(N)n12 [SMR000415838] is 3.5-fold higher in EC50: 24.1 µM for the first, 83.5 µM for the second.

Compared with Oc1ccc(CN=Nc2cc(N3CCCC3)nc(N3CCCC3)n2)cc1O [(4Z)-4-[[2-(2,6-dipyrrolidin-1-ylpyrimidin-4-yl)hydrazinyl]methylidene]-2-hydroxycyclohexa-2,5-dien-1-one], Nc1c(/C=C2/C=CC(=O)C(O)=C2)c(=O)nc2sc(CC(=O)N3CCCCC3)nn12 [MLS001139223] is lower in EC50: > 100 µM for the first, 23.5 µM for the second.

C#CCOCCOCCOCCNc1nc(N2CCN(C(=O)CCCCCCCCCCNC(=O)Cn3cc(CCCCCN)nn3)CC2)nc(N2CCN(C(=O)CCCCCCCCCCNC(=O)Cn3cc(C[C@@H](C)O)nn3)CC2)n1 [KG-TG] and C#CCOCCOCCOCCNc1nc(N2CCN(C(=O)CCCCCCCCCCNC(=O)[C@@H](CCC(=O)O)n3cc(CCCCCN)nn3)CC2)nc(N2CCN(C(=O)CCCCCCCCCCNC(=O)[C@H]([C@@H](C)CC)n3cc(CCCCCN)nn3)CC2)n1 [KI-KE] cannot be ordered by EC50: > 100 µM for the first, > 100 µM for the second.

C[C@@H]1O[C@@H](O[C@H]2[C@H](O)[C@@H](O)[C@H](Oc3c(-c4ccc(O)c(O)c4)oc4cc(O)cc(=O)c-4c3O)O[C@@H]2CO)[C@H](O)[C@H](O)[C@H]1O [quercetin-3-rham(4)-gluc] gave an EC50 of 22.6 µM.

From BindingDB's records for doi:10.7270/Q2SJ1J25 (Burnham Center For Chemical Genomics, 2010)
